Test results as given in patent publication US20230088704A1, “A PHARMACEUTICAL COMBINATION FOR THE TREATMENT OF A CANCER” (ABILITY PHARMACEUTICALS S.L., priority 2020, published 2023).
Where two headings read alike, the source gives them in different places.

How the values were obtained:
[1] = test system: THP-1 human macrophage cells; test: M1/M2 macrophage polarization, marker mRNA by RT-qPCR; format: cell-based
Method: Methods: THP-1 monocytes growing in suspension are differentiated to macrophages by incubation with PMA for 24 hours, inducing their attachment to the plates. Once THP-1 are differentiated to macrophages, these are polarized to M1 by incubation with LPS for 6 or 24 hours in the presence of ABTL0812 (50 or 100 μM). In parallel, differentiated macrophages are polarized to M2 by incubation with IL-4 and IL-13 for 24 hours in the presence of ABTL0812 (50 μM). Then, polarized macrophages are lysed, total RNA extracted, retrotranscribed to cDNA and mRNA levels of IL1β, TNFα (M1 markers) and […] (M2 marker) were evaluated by RT-qPCR using specific probes.

LA1-5S cells [2] = test: Cell viability (crystal violet), ABTL0812 with topotecan; format: cell-based; settings: ABTL0812 30 μM + topotecan 0.5, 1, 2 μM; 72 hours
Method: Methods: LA1-5S cells were incubated with increasing concentrations of topotecan (0.5 μM, 1 μM and 2 μM) and a fixed concentration of ABTL0812 (30 μM). Cells were treated for 72 hours in IMDM with 0.5% FBS. Cell viability was evaluated by crystal violet assay. Data is presented as mean±SEM of three independent experiments. Statistical analyses were performed according to the T-Test principle with GraphPad Prism® 5.0 software.

PDL1 = PDL1 expression in cancer cells by flow cytometry (Example 6.2); format: cell-based, human; settings: ABTL0812 100 μM, 48 hours
Method: Methods: Human cancer cell lines were incubated with 100 μM of ABTL0812 during 48 hours and collected for staining with anti-PDL1 antibody labeled with a fluorophore. After staining of cells with anti-PDL1 antibody, cells were run on Flow Cytometry (Facs Canto) to analyzed PDL1 levels in cancer cells. Additionally, we incubated Panc-1 cells with ABTL0812 (50 μM), IFNγ (2.5 ng/ml), a master regulator of PDL1 expression or a combination with both. Then, cells were collected, stained with anti-PDL1 antibody and analyzed by Flow Cytometry for the expression of PDL1.

Ishikawa cells [3] = format: in vivo; settings: ABTL0812 oral 120 mg/kg/day; Doxorubicin 5 mg/kg i.p. once a week
Method: Methods: Mice were injected with 4×10^6 Ishikawa cells in one flank to induce tumor formation. […] ABTL0812 was administered by the oral route at 120 mg/kg/day. Doxorubicin 5 mg/kg was administered intra-peritoneally once a week. Tumor volume and body weight were monitored 3 times a week.

SK-N-BE(2) cells = test: Cell viability (crystal violet), ABTL0812 with temozolomide; format: cell-based; settings: ABTL0812 30 μM + temozolomide 500, 1000, 1500 μM; 48 hours; 0.5% FBS
Method: (§1) Methods: LA1-5S and SK-N-BE(2) cells were incubated with increasing concentrations of temozolomide (500 μM, 1000 μM and 1500 μM), and subIC50 fixed concentrations of ABTL0812. (30 μM for SK-N-BE(2) and 40 μM for LA1-5S). Cells were treated for 48 hours in IMDM with 0.5% FBS. Cell viability was evaluated by crystal violet assay. Different doses were assessed in six replicates and the results shown are the average of two independent experiments. Statistical analyses were performed according to the T-Test principle with GraphPad Prism® 5.0 software.

LA1-5S cells [4] = test: as above; format: cell-based; settings: ABTL0812 40 μM + temozolomide 500, 1000, 1500 μM; 48 hours; 0.5% FBS
Method: as §1

[5] = test system: human immortalized THP-1 and human primary macrophage cells; test: M1/M2 polarization of immortalized and primary macrophages, RT-qPCR; format: cell-based
Method: Methods: THP-1 monocytes growing in suspension were differentiated to macrophages by incubation with PMA for 24 hours, inducing their attachment to the plates. Monocytes were differentiated to macrophages incubating with M-CSF1 at 20 ng/mL for 7 days. In parallel, whole blood was collected from healthy donors, and circulating monocytes were purified using immunomagnetic separation. Monocytes were selected using anti-CD14 antibodies bound to magnetic beads, which were retained in the magnetic column and further eluted for culturing in vitro. After obtaining activated macrophages (immortalized and primary), these were polarized to M1 by incubation with LPS+IFNγ for 6 hours in the presence of ABTL0812 at 100 μM. In parallel, differentiated macrophages were polarized to M2 by incubation with IL-4 and IL-13 for 24 hours in the presence of ABTL0812 (100 μM). Afterwards, polarized macrophages were lysed, total RNA extracted, retrotranscribed to cDNA and mRNA levels of IL1β, TNFα (M1 markers) and IL-10 (M2 marker) were evaluated by RT-qPCR using specific probes.

U87MG cells = test: Human glioblastoma orthotopic xenograft, ABTL0812 with temozolomide; format: in vivo, nude mice; settings: ABTL0812 oral 240 mg/kg 5 days/week; temozolomide oral 32 mg/Kg first 5 days
Method: Methods: Mice were intra-cerebrally injected with luciferase transfected U87MG cells. Animals were randomized 5 days after cell inoculation and treatments started. ABTL0812 was administered orally at 240 mg/kg 5 days/week; and temozolomide orally at 32 mg/Kg the first 5 days. Tumors were measured by quantification of bioluminescence intensity (BLI) of the region of interest.

Ishikawa cells [6] = test: Human endometrial cancer xenograft, ABTL0812 with olaparib; format: in vivo; settings: ABTL0812 oral 120 mg/kg/day; Olaparib oral 50 mg/kg/day
Method: Methods: Mice were injected with 4×10^6 Ishikawa cells in one flank to induce tumor formation. […] Olaparib was administered by the oral route 50 mg/kg/day. Tumor volume and body weight were monitored 3 times a week.

H157 cells = test: PDL1 protein in xenograft tumors by western blot; format: in vivo, nude mice; settings: ABTL0812 oral 120 mg/kg/day for three weeks
Method: (§2) Methods: Mice were injected with 4×10^6 H157 cells or 5×10^6 MiaPAca2 cells in one flank to induce tumor formation. […] After treatment, animals were sacrificed, tumor extracted and protein levels of PDL1 in cancer cells analyzed by western blot.

MiaPaca2 cells = test: PDL1 protein in xenograft tumors by western blot; format: in vivo, nude mice; settings: ABTL0812 oral 120 mg/kg/day for three weeks
Method: as §2

[7] = differentiated macrophages without polarizing, ABTL0812 alone
[8] = macrophages polarized to M1 (LPS 6 or 24 hours), ABTL0812 50 or 100 μM
[9] = macrophages polarized to M1 (LPS+IFNγ 6 hours), ABTL0812 100 μM

CCCCC/C=C\C/C=C\CCCCCCC(O)C(=O)O (stereo not drawn) [ABTL0812, COOH—CHOH—(CH2)6—(CH═CH—CH2)2—(CH2)3—CH3]
expression of IL-1β [1, 7]: significantly induce the expression of IL-1β
IL-1β mRNA levels [1, 8]: significantly potentiates
TNFα mRNA levels [1, 8]: significantly potentiates
IL-10 mRNA levels ([1]; macrophages polarized to M2 (IL-4 and IL-13, 24 hours), ABTL0812 50 μM): significantly suppresses
topotecan cytotoxicity on addition of ABTL0812 (LA1-5S cells [2]): significantly increased topotecan cytotoxicity
PDL1 expression, increase from basal levels (PDL1; Capan-2 cells): 86%
PDL1 expression, increase from basal levels (PDL1; MiaPaca2 cells): 34%
tumor volume (Ishikawa cells [3]): significantly reduced tumor volume
temozolomide cytotoxicity on addition of ABTL0812 (SK-N-BE(2) cells): increased temozolomide cytotoxicity
temozolomide cytotoxicity on addition of ABTL0812 (LA1-5S cells [4]): increased temozolomide cytotoxicity
expression of IL-1β [5, 7]: significantly induces the expression of IL-1β
IL-1β mRNA levels [5, 9]: significantly potentiates
TNFα mRNA levels [5, 9]: significantly potentiates
IL-10 mRNA levels ([5]; macrophages polarized to M2 (IL-4 and IL-13, 24 hours), ABTL0812 100 μM): significantly suppresses
disease-free survival (U87MG cells): significantly increased the disease-free survival
tumor volume (Ishikawa cells [6]): significantly reduced tumor volume
protein levels of PDL1 in tumor (H157 cells): Increases protein levels of PDL1 in tumor in vivo
protein levels of PDL1 in tumor (MiaPaca2 cells): Increases protein levels of PDL1 in tumor in vivo
